Measured values published in publication PMC9359912, “Pathogenic bacteria remodel central metabolic enzyme to build a cyclopropanol warhead” (Nature Chemistry, 2022).

Biological target: T1, BurG (Burkholderia thailandensis, UniProt Q2T3G7)
T1 construct: gene ilvC-2

NC(=O)C1=CN([C@@H]2O[C@H](COP(=O)(O)OP(=O)(O)OC[C@H]3O[C@@H](n4cnc5c(N)ncnc54)[C@H](O)[C@@H]3O)[C@@H](O)[C@H]2O)C=CC1 [NADH]
X-ray co-crystal structure, 2.05 Å: complexed between the two magnesium atoms and NADH in the active site
